Source: ChEMBL document CHEMBL5291721, “A preclinical secondary pharmacology resource illuminates target-adverse drug reaction associations of marketed drugs” (Nat Commun, 2023)

Legend:
B2 bradykinin receptor = biological target: T1, B2 bradykinin receptor (Homo sapiens, UniProt P30411)
T1 sequence (P30411 whole entry): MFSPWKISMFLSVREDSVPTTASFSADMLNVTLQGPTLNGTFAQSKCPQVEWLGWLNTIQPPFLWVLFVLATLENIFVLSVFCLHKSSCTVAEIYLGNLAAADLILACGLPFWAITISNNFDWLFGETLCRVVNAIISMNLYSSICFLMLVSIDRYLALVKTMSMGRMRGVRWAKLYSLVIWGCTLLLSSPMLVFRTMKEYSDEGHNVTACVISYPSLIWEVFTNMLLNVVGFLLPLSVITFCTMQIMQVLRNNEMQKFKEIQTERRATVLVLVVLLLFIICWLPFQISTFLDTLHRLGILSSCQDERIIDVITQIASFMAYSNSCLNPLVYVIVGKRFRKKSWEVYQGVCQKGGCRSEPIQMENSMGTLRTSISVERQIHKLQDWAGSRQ

[1] = biological target: T2, 5-hydroxytryptamine receptor 2C (Homo sapiens, UniProt P28335)
T2 sequence (P28335 whole entry): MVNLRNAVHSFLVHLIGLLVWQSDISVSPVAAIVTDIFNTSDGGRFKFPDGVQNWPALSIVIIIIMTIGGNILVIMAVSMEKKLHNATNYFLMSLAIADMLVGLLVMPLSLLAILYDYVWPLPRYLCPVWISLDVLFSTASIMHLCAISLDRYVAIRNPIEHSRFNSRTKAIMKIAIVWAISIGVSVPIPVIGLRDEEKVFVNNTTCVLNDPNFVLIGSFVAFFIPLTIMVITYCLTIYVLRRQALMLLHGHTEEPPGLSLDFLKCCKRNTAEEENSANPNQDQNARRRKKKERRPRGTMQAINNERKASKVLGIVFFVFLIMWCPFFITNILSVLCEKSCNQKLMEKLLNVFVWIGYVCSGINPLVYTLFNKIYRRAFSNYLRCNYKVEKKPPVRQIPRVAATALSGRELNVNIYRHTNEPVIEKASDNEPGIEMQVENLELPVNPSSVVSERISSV

D(3) dopamine receptor = D(3) dopamine receptor (Homo sapiens, UniProt P35462)
[2] = biological target: Prostaglandin G/H synthase 1 (Homo sapiens, UniProt P23219); type: functional
Acetylcholinesterase = Acetylcholinesterase (Homo sapiens, UniProt P22303); type: functional
[3] = biological target: T3, 5-hydroxytryptamine receptor 1A (Homo sapiens, UniProt P08908)
T3 sequence (P08908 whole entry): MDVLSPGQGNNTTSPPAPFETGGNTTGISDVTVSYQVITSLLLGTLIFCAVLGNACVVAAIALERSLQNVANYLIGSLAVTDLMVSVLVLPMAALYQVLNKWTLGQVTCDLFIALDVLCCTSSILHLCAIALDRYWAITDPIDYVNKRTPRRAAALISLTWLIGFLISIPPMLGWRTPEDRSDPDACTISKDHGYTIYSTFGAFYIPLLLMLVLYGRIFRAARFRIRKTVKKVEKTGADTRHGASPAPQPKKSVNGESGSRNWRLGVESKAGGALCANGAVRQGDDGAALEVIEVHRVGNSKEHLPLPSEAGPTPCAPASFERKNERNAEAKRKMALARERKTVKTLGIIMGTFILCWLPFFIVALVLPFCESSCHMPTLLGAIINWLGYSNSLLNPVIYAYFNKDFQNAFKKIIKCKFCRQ

[4] = biological target: T4, Amine oxidase [flavin-containing] A (Homo sapiens, UniProt P21397); type: functional
T4 sequence (P21397 whole entry): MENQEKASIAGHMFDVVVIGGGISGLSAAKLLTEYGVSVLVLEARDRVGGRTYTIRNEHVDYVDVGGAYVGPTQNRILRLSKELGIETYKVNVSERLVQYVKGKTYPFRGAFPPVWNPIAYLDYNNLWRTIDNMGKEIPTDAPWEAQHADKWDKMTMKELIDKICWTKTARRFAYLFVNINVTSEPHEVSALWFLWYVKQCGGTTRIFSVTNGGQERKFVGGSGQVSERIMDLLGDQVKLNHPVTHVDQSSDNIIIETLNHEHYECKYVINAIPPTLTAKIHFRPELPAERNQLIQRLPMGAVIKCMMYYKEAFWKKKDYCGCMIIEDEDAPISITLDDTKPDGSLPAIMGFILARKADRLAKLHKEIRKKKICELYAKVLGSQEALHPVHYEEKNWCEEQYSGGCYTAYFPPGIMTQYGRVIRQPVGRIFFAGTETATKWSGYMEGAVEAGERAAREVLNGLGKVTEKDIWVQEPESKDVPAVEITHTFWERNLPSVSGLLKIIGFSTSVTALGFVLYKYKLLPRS

[5] = biological target: 3',5'-cyclic-AMP phosphodiesterase 4A (Homo sapiens, UniProt P27815); type: functional
Thromboxane A2 receptor = biological target: T5, Thromboxane A2 receptor (Homo sapiens, UniProt P21731); type: functional, cell-based
T5 sequence (P21731 whole entry): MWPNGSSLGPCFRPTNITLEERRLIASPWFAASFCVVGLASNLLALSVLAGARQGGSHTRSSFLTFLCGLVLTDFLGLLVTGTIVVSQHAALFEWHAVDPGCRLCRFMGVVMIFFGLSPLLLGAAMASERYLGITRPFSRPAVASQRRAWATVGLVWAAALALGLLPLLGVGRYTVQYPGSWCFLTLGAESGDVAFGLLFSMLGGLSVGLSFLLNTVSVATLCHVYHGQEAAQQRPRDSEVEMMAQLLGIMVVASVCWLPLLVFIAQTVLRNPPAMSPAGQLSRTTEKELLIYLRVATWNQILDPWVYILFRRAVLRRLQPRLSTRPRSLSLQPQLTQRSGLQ

[6] = biological target: T6, Muscarinic acetylcholine receptor M2 (Homo sapiens, UniProt P08172)
T6 sequence (P08172 whole entry): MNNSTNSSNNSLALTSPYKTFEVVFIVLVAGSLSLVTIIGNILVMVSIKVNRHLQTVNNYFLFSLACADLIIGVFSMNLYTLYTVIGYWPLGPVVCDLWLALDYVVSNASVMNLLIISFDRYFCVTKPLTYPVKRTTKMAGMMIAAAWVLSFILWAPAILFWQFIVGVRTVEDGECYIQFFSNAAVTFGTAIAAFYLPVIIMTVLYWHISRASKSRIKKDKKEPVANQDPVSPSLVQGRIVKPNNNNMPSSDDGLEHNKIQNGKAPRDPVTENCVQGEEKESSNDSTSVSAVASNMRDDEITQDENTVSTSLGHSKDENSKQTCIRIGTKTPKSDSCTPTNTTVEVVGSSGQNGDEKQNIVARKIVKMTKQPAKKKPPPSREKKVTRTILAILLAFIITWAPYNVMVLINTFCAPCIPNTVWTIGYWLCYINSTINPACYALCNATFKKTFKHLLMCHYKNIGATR
Further: assay procedure not described here.

Chain of 3',5'-cyclic-AMP phosphodiesterase 4A (P27815 whole entry): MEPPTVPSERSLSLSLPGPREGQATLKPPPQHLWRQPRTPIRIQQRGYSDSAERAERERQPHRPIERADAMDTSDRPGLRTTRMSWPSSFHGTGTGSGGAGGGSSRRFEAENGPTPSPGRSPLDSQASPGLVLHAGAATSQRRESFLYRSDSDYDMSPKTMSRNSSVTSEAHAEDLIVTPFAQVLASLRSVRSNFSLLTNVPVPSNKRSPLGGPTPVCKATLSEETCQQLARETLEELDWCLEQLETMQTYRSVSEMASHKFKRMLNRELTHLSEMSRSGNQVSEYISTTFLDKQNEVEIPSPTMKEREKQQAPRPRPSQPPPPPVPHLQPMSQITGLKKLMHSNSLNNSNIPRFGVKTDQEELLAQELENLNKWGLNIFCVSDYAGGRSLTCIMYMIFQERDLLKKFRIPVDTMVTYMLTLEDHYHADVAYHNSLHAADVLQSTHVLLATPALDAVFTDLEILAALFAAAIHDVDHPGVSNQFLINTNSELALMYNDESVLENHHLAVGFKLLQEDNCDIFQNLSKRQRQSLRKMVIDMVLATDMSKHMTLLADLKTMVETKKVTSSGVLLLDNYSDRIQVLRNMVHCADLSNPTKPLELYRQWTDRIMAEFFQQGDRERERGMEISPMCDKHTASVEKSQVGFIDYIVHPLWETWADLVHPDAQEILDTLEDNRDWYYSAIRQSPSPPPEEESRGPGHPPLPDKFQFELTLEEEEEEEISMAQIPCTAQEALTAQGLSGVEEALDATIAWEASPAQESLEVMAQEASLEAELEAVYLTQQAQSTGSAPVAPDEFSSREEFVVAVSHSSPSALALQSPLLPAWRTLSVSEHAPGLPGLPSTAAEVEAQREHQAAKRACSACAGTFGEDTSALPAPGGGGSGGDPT
Chain of D(3) dopamine receptor (P35462 whole entry): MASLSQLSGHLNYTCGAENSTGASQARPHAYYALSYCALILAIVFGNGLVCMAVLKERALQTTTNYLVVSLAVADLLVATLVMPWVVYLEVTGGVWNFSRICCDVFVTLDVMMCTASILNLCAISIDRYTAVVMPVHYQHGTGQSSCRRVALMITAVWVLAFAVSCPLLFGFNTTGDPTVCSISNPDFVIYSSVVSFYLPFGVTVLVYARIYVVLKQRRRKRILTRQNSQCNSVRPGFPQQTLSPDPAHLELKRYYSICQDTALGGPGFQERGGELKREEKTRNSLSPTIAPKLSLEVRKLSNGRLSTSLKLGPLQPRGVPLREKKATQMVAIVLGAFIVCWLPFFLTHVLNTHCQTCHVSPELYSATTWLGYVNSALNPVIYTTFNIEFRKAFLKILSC
Chain of Acetylcholinesterase (P22303 whole entry): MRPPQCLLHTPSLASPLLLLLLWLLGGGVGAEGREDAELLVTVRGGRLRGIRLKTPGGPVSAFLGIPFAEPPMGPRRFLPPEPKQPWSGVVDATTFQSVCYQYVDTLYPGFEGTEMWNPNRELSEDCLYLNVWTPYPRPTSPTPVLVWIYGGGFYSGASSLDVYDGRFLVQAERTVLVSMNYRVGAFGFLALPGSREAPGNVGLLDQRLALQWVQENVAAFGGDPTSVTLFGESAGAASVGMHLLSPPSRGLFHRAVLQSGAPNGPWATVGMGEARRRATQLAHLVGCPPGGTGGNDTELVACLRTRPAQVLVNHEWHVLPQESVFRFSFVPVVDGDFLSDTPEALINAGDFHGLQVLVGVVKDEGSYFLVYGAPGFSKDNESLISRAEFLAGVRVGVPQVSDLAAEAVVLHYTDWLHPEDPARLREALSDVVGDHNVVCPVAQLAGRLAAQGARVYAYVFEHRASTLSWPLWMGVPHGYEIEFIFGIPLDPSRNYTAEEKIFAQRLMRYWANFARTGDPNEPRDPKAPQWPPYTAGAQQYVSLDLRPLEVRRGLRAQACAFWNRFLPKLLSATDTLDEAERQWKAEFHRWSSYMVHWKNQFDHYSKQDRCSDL
Chain of Prostaglandin G/H synthase 1 (P23219 whole entry): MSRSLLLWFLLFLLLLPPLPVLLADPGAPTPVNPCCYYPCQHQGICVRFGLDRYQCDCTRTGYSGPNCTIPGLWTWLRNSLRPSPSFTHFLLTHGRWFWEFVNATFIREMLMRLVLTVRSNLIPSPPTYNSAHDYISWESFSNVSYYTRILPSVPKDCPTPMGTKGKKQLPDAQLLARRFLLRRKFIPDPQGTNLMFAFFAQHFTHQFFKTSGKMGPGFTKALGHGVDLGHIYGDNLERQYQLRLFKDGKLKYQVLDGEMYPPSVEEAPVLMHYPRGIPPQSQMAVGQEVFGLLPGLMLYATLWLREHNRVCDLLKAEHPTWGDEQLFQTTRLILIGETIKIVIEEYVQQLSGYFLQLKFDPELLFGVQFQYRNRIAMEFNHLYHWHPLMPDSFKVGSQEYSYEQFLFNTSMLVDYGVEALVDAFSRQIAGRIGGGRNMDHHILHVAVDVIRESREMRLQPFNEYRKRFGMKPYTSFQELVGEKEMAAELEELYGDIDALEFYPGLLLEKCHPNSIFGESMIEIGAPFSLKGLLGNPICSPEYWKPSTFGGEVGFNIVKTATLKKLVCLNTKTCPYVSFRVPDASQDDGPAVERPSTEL

Row | SMILES | AC50 (B2 bradykinin receptor) [µM] | AC50 [1] [µM] | AC50 (D(3) dopamine receptor) [µM] | further results
1 | CCOc1nc2cccc(C(=O)O)c2n1Cc1ccc(-c2ccccc2-c2nnn[nH]2)cc1 | > 30 | 14 | > 30 | –
2 | CC[C@@H]1C[C@]1(NC(=O)[C@@H]1C[C@@H]2CN1C(=O)[C@H](C(C)(C)C)NC(=O)OCC(C)(C)CCCCc1cccc3c1CN(C3)C(=O)O2)C(=O)NS(=O)(=O)C1CC1 | – | – | – | AC50 [2]: 26.8 µM; AC50 (Acetylcholinesterase): > 30 µM; AC50 [3]: > 30 µM; AC50 [4]: > 30 µM; AC50 [5]: > 30 µM; AC50 (Thromboxane A2 receptor): > 3 µM; AC50 [6]: > 30 µM
3 | CCOc1cc([C@@H](CS(C)(=O)=O)N2C(=O)c3cccc(NC(C)=O)c3C2=O)ccc1OC | – | > 30 | > 30 | –
4 | CC(=O)NO [ACETOHYDROXAMIC ACID] | – | – | – | AC50 [2]: 21.5 µM; AC50 (Acetylcholinesterase): > 30 µM; AC50 [3]: > 30 µM; AC50 [4]: > 30 µM; AC50 [5]: > 30 µM; AC50 (Thromboxane A2 receptor): > 30 µM; AC50 [6]: > 30 µM
5 | CC(=O)Nc1ccc(CC(=O)O)cc1 [ACTARIT] | > 30 | > 30 | > 30 | –
6 | CC(C(=O)O)c1ccc2oc(-c3ccc(Cl)cc3)nc2c1 (stereo not given) [BENOXAPROFEN] | > 30 | > 30 | > 30 | –
7 | Nc1c(CC(=O)O)cccc1C(=O)c1ccc(Br)cc1 [BROMFENAC] | – | – | – | AC50 (Acetylcholinesterase): > 30 µM; AC50 [3]: > 30 µM; AC50 [4]: > 30 µM; AC50 [5]: > 30 µM; AC50 (Thromboxane A2 receptor): > 30 µM; AC50 [6]: > 30 µM
8 | CC1(C)S[C@@H]2[C@H](NC(=O)C(C(=O)O)c3ccccc3)C(=O)N2[C@H]1C(=O)O (stereo not given in full) [CARBENICILLIN] | > 30 | > 30 | > 30 | –
9 | Cc1nnc(SCC2=C(C(=O)O)N3C(=O)[C@@H](NC(=O)Cn4cnnn4)[C@H]3SC2)s1 [CEFAZOLIN] | > 30 | > 300 | > 300 | –
10 | CC=CC1=C(C(=O)O)N2C(=O)[C@@H](NC(=O)[C@H](N)c3ccc(O)cc3)[C@H]2SC1 [CEFPROZIL] | > 30 | > 30 | 26 | –
11 | CC(C)(O/N=C(\C(=O)N[C@@H]1C(=O)N2C(C(=O)[O-])=C(C[n+]3ccccc3)CS[C@H]12)c1csc(N)n1)C(=O)O [CEFTAZIDIME] | > 30 | > 300 | > 300 | –
12 | CCCNC(=O)NS(=O)(=O)c1ccc(Cl)cc1 [CHLORPROPAMIDE] | > 30 | > 30 | > 30 | –
13 | Cc1cc(C2CCCCC2)n(O)c(=O)c1 [CICLOPIROX] | – | – | – | AC50 [2]: > 30 µM; AC50 (Acetylcholinesterase): > 30 µM; AC50 [3]: > 30 µM; AC50 [4]: > 30 µM; AC50 [5]: > 30 µM; AC50 [6]: > 30 µM
14 | Clc1ccc(Cn2c(CN3CCCC3)nc3ccccc32)cc1 [CLEMIZOLE] | – | > 30 | > 30 | –
15 | CCC(=O)O[C@]1(C(=O)CCl)[C@@H](C)C[C@H]2[C@@H]3CCC4=CC(=O)C=C[C@]4(C)[C@@]3(F)[C@@H](O)C[C@@]21C [CLOBETASOL PROPIONATE] | > 30 | > 30 | > 30 | –
16 | Cc1nc(Nc2ncc(C(=O)Nc3c(C)cccc3Cl)s2)cc(N2CCN(CCO)CC2)n1 [DASATINIB] | > 30 | 14.1 | > 30 | –

Row | SMILES | AC50 (B2 bradykinin receptor) [µM] | AC50 [1] [µM] | AC50 (D(3) dopamine receptor) [µM] | further results
17 | CC(C)Cc1ccc([C@H](C)C(=O)O)cc1 [DEXIBUPROFEN] | – | > 30 | > 30 | –
18 | O=C(O)Cc1ccccc1Nc1c(Cl)cccc1Cl [DICLOFENAC] | > 30 | > 10 | > 10 | AC50 (Acetylcholinesterase): > 3 µM; AC50 [3]: > 3 µM; AC50 [4]: > 3 µM; AC50 [5]: > 3 µM; AC50 (Thromboxane A2 receptor): > 3 µM; AC50 [6]: > 3 µM
19 | CNC[C@H](O)c1ccc(O)c(O)c1 [EPINEPHRINE] | – | > 30 | 8.4 | –
20 | Cc1onc(-c2c(F)cccc2Cl)c1C(=O)N[C@@H]1C(=O)N2[C@@H]1SC(C)(C)[C@@H]2C(=O)O [FLOXACILLIN] | – | > 30 | > 30 | –
21 | CCCCCCCN(CC)CCCC(O)c1ccc(NS(C)(=O)=O)cc1 (stereo not given) [IBUTILIDE] | > 30 | > 30 | 4.3 | –
22 | CC[C@H](C)C(=O)O[C@H]1C[C@@H](C)C=C2C=C[C@H](C)[C@H](CC[C@@H]3C[C@@H](O)CC(=O)O3)[C@H]21 [LOVASTATIN] | > 30 | > 30 | > 10 | –
23 | C[N+]1(C)CCCC(OC(=O)C(O)(c2ccccc2)c2ccccc2)C1 (stereo not given) [MEPENZOLATE] | – | – | – | AC50 [2]: > 30 µM; AC50 (Acetylcholinesterase): > 30 µM; AC50 [3]: > 30 µM; AC50 [4]: > 30 µM; AC50 [5]: > 30 µM; AC50 (Thromboxane A2 receptor): > 30 µM
24 | CC[C@@H](CO)NC(=O)[C@@H]1C=C2c3cccc4c3c(cn4C)C[C@H]2N(C)C1 [METHYSERGIDE] | > 30 | 0.0082 | 0.42 | –
25 | CNC(=C[N+](=O)[O-])NCCSCc1csc(CN(C)C)n1 [NIZATIDINE] | > 10 | > 30 | > 30 | –
26 | CN1Cc2c(N)cccc2C(c2ccccc2)C1 (stereo not given) [NOMIFENSINE] | > 30 | – | > 30 | –
27 | CCCc1cc(=O)[nH]c(=S)[nH]1 [PROPYLTHIOURACIL] | > 10 | > 30 | > 30 | –
28 | Cn1cc(C(=O)[C@@H]2CCc3nc[nH]c3C2)c2ccccc21 [RAMOSETRON] | > 30 | > 30 | > 30 | –
29 | CN(CCOc1ccc(CC2SC(=O)NC2=O)cc1)c1ccccn1 (stereo not given) [ROSIGLITAZONE] | > 30 | > 30 | > 30 | –
30 | S=P(N1CC1)(N1CC1)N1CC1 [THIOTEPA] | – | 9.4 | 9.9 | –
31 | CC(C)[C@H](N)C(=O)OCCOCn1cnc2c(=O)[nH]c(N)nc21 [VALACYCLOVIR] | > 30 | > 30 | > 10 | –
32 | COc1cc(C(=O)NS(=O)(=O)c2ccccc2C)ccc1Cc1cn(C)c2ccc(NC(=O)OC3CCCC3)cc12 [ZAFIRLUKAST] | > 10 | – | – | –
